Assay results: the NIST ThermoML archive (doi:10.1021/je700406p)

Experiment: wn = mass fraction of the nth substance listed
Settings: Liquid, Vibrating tube method

CC(C)(N)CO [2-amino-2-methylpropan-1-ol] + O
Settings	mass density [kg/m3]
352.85 K, 12992 kPa, w1 = 0.2821	967.1
352.85 K, 13990 kPa, w1 = 0.2821	967.5
352.85 K, 14990 kPa, w1 = 0.2821	968
352.85 K, 15988 kPa, w1 = 0.2821	968.4
352.85 K, 16991 kPa, w1 = 0.2821	968.8
352.85 K, 17991 kPa, w1 = 0.2821	969.2
352.85 K, 18988 kPa, w1 = 0.2821	969.6
352.85 K, 19987 kPa, w1 = 0.2821	970.1
352.85 K, 20985 kPa, w1 = 0.2821	970.5
352.86 K, 500 kPa, w1 = 0.1997	965
352.86 K, 1000 kPa, w1 = 0.1997	965.2
352.86 K, 2000 kPa, w1 = 0.1997	965.7
352.86 K, 3000 kPa, w1 = 0.1997	966.2
352.86 K, 4000 kPa, w1 = 0.1997	966.5
352.86 K, 5000 kPa, w1 = 0.1997	966.9
352.86 K, 6000 kPa, w1 = 0.1997	967.3
352.86 K, 7000 kPa, w1 = 0.1997	967.8
352.86 K, 8000 kPa, w1 = 0.1997	968.2
352.86 K, 9009 kPa, w1 = 0.1997	968.6
352.86 K, 10002 kPa, w1 = 0.1997	969.1
352.86 K, 11001 kPa, w1 = 0.1997	969.5
352.86 K, 12000 kPa, w1 = 0.1997	970
352.86 K, 13000 kPa, w1 = 0.1997	970.4
352.86 K, 14000 kPa, w1 = 0.1997	970.8
352.86 K, 15003 kPa, w1 = 0.1997	971.2
352.86 K, 16001 kPa, w1 = 0.1997	971.6
352.86 K, 17001 kPa, w1 = 0.1997	972.1
352.86 K, 18002 kPa, w1 = 0.1997	972.5
352.86 K, 19001 kPa, w1 = 0.1997	972.9
352.86 K, 20029 kPa, w1 = 0.1997	973.3
352.86 K, 21004 kPa, w1 = 0.1997	973.8
352.86 K, 22004 kPa, w1 = 0.1997	974.1
352.86 K, 23000 kPa, w1 = 0.1997	974.5
352.86 K, 24004 kPa, w1 = 0.1997	975
352.87 K, 1039 kPa, w1 = 0.4976	945
352.87 K, 2018 kPa, w1 = 0.4976	945.5
352.87 K, 3005 kPa, w1 = 0.4976	946
352.87 K, 4018 kPa, w1 = 0.4976	946.5
352.87 K, 5000 kPa, w1 = 0.4976	946.9
352.87 K, 5997 kPa, w1 = 0.4976	947.4
352.87 K, 7007 kPa, w1 = 0.4976	947.9
352.87 K, 7999 kPa, w1 = 0.4976	948.4
352.87 K, 8994 kPa, w1 = 0.4976	948.9
352.87 K, 9996 kPa, w1 = 0.4976	949.4
352.87 K, 10996 kPa, w1 = 0.4976	949.8
352.87 K, 12002 kPa, w1 = 0.4976	950.3
352.87 K, 13000 kPa, w1 = 0.4976	950.8
352.87 K, 13993 kPa, w1 = 0.4976	951.2
352.87 K, 15004 kPa, w1 = 0.4976	951.7
352.87 K, 16002 kPa, w1 = 0.4976	952.2
352.87 K, 16989 kPa, w1 = 0.4976	952.6
352.87 K, 18011 kPa, w1 = 0.4976	953.1
352.87 K, 18989 kPa, w1 = 0.4976	953.5
352.87 K, 20010 kPa, w1 = 0.4976	954
352.87 K, 20989 kPa, w1 = 0.4976	954.4
362.73 K, 999 kPa, w1 = 0.2821	954.1
362.73 K, 1015 kPa, w1 = 0.4976	936.3
362.73 K, 1999 kPa, w1 = 0.2821	954.5
362.73 K, 2010 kPa, w1 = 0.4976	936.7
362.73 K, 2998 kPa, w1 = 0.2821	955.1
362.73 K, 3022 kPa, w1 = 0.4976	937.3
362.73 K, 3996 kPa, w1 = 0.2821	955.4
362.73 K, 3997 kPa, w1 = 0.4976	937.8
362.73 K, 4996 kPa, w1 = 0.2821	955.9
362.73 K, 5010 kPa, w1 = 0.4976	938.3
362.73 K, 5993 kPa, w1 = 0.2821	956.3
362.73 K, 6002 kPa, w1 = 0.4976	938.8
362.73 K, 6993 kPa, w1 = 0.2821	956.8
362.73 K, 6999 kPa, w1 = 0.4976	939.3
362.73 K, 7992 kPa, w1 = 0.4976	939.8
362.73 K, 8006 kPa, w1 = 0.2821	957.3
362.73 K, 8992 kPa, w1 = 0.2821	957.7
362.73 K, 8997 kPa, w1 = 0.4976	940.3
362.73 K, 9994 kPa, w1 = 0.2821	958.1
362.73 K, 10028 kPa, w1 = 0.4976	940.9
362.73 K, 10990 kPa, w1 = 0.4976	941.3
362.73 K, 10992 kPa, w1 = 0.2821	958.6
362.73 K, 11992 kPa, w1 = 0.2821	959.1
362.73 K, 11996 kPa, w1 = 0.4976	941.8
362.73 K, 12991 kPa, w1 = 0.2821	959.5
362.73 K, 13002 kPa, w1 = 0.4976	942.3
362.73 K, 13992 kPa, w1 = 0.2821	959.9
362.73 K, 13994 kPa, w1 = 0.4976	942.8
362.73 K, 14986 kPa, w1 = 0.4976	943.3
362.73 K, 14988 kPa, w1 = 0.2821	960.4
362.73 K, 15987 kPa, w1 = 0.2821	960.8
362.73 K, 15995 kPa, w1 = 0.4976	943.8
362.73 K, 16985 kPa, w1 = 0.4976	944.3
362.73 K, 16990 kPa, w1 = 0.2821	961.3
362.73 K, 18007 kPa, w1 = 0.4976	944.8
362.73 K, 18019 kPa, w1 = 0.2821	961.7
362.73 K, 18985 kPa, w1 = 0.2821	962.1
362.73 K, 18989 kPa, w1 = 0.4976	945.2
362.73 K, 19985 kPa, w1 = 0.2821	962.6
362.73 K, 19988 kPa, w1 = 0.4976	945.7
362.73 K, 21004 kPa, w1 = 0.4976	946.2
362.74 K, 532 kPa, w1 = 0.1997	957.9
362.74 K, 1001 kPa, w1 = 0.1997	958
362.74 K, 1014 kPa, w1 = 0.4002	946.1
362.74 K, 1992 kPa, w1 = 0.4002	946.6
362.74 K, 2000 kPa, w1 = 0.1997	958.5
362.74 K, 3000 kPa, w1 = 0.1997	959
362.74 K, 3010 kPa, w1 = 0.4002	947.1
362.74 K, 4000 kPa, w1 = 0.1997	959.4
362.74 K, 4009 kPa, w1 = 0.4002	947.5
362.74 K, 5000 kPa, w1 = 0.1997	960.1
362.74 K, 5001 kPa, w1 = 0.4002	948
362.74 K, 6000 kPa, w1 = 0.1997	960.4
362.74 K, 6003 kPa, w1 = 0.4002	948.5
362.74 K, 6999 kPa, w1 = 0.4002	949
362.74 K, 7000 kPa, w1 = 0.1997	960.7
362.74 K, 7990 kPa, w1 = 0.4002	949.4
362.74 K, 8001 kPa, w1 = 0.1997	961.2
362.74 K, 8995 kPa, w1 = 0.4002	949.9
362.74 K, 9009 kPa, w1 = 0.1997	961.6
362.74 K, 10004 kPa, w1 = 0.1997	962.1
362.74 K, 10039 kPa, w1 = 0.4002	950.4
362.74 K, 10986 kPa, w1 = 0.4002	950.8
362.74 K, 11001 kPa, w1 = 0.1997	962.4
362.74 K, 11991 kPa, w1 = 0.4002	951.3
362.74 K, 12999 kPa, w1 = 0.4002	951.8
362.74 K, 13999 kPa, w1 = 0.4002	952.2
362.74 K, 14990 kPa, w1 = 0.4002	952.7
362.74 K, 15993 kPa, w1 = 0.4002	953.2
362.74 K, 16984 kPa, w1 = 0.4002	953.6
362.74 K, 18005 kPa, w1 = 0.4002	954.1
362.74 K, 18993 kPa, w1 = 0.4002	954.5
362.74 K, 19978 kPa, w1 = 0.4002	955
362.74 K, 21014 kPa, w1 = 0.4002	955.4
